# Patent US20210214448A1, “CCR5 BINDING AGENT FOR THE TREATMENT OF CCR5 POSITIVE METASTATIC CANCER” (CytoDyn Inc., priority 2020, published 2021)
# Entries after “also recorded” stand apart in the source; their conditions may differ.
# How the values were obtained:
# [1] = test system: CTC and EMT; assay: Single patient emergency use IND: CTC and EMT counts; format: in vivo, human; conditions: Patient A, 700 mg weekly, approximately ten weeks after initiation
# Procedure: Approximately ten weeks following the initiation of treatment, the subject's CTC and EMT counts were measured, and zero CTCs and zero EMTs were identified. Lesion and nodule sizes were measured in the breast and liver of Patient A and metastases were also qualitatively described (FIG. 6). Protein expression levels of CCR5 (FIG. 7A) and PD-L1 (FIG. 7B) on individual CAMLs from Patient A were measured by flow cytometry and reported as Mean Fluorescence Intensity (MFI). CCR5 MFI (“CCR5 INT”) was calculated by subtracting background signal of a negative control sample from the experimental value. CAML size was also measured and reported in […].
# [2] = test system: MDA-MB-231 cells expressing Luc2-eGFP (MDA-MB-231.pFLUG); assay: Breast cancer tumor / lung metastasis model in mice, bioluminescence imaging; format: in vivo, female NCI Athymic NCr-nu/nu mice
# Procedure: Each mouse received one million (10^6) MDA-MB-231 cells expressing Luc2-eGFP (called MDA-MB-231.pFLUG) through the tail vein. […] Treatment was started one day before the injection.
# In vivo bio-luminescence imaging was performed following intraperitoneal injection with 100 μl of D-luciferin (30 mg/mL) to the control and treated groups. […] FIG. 1D is a plot of the percentage of mice with tumors.
# [3] = test system: circulating tumor cells (CTC), epithelial mesenchymal transition cells (EMTs) and cancer-associated macrophage-like cells (CAMLs); assay: Phase Ib/II mTNBC study: CTC, EMT and CAML counts in blood (LifeTrac Assay, CellSieve filtration); format: in vivo, human; conditions: for Number of CTCs (PD-L1) / Number of Apoptotic CTCs (CCR5) / Number of CAMLs (CCR5) / Number of CAMLs (PD-L1) / Number of CTCs (CCR5) / Number of EMTs (CCR5) / Number of EMTs (PD-L1) / CAML- Total / EMT-Total / Number of Apoptotic CTC (PD-L1) / CTC-Total: Patient D; for Number of CTCs (PD-L1): baseline 0; for Number of Apoptotic CTCs (CCR5) / Number of CAMLs (CCR5) / Number of CAMLs (PD-L1) / Number of CTCs (CCR5) / Number of EMTs (CCR5) / Number of EMTs (PD-L1): baseline 1; for CAML- Total / EMT-Total: baseline 2; for Number of Apoptotic CTC (PD-L1): baseline 3; for CTC-Total: baseline 5
# Excerpt: (§1) The primary objective of Phase 1b is to determine the safety, tolerability, and maximum tolerated dose (MTD) of PRO 140 in patients with TNBC, when combined with carboplatin to define a recommended Phase II dose of the combination. The primary objective of phase 2b is to evaluate the impact on progression-free survival (PFS) of the combination of PRO 140 and carboplatin in patients with CCR5+ TNBC previously treated with anthracyclines and taxanes in a neoadjuvant and adjuvant setting. For further investigational plan details please refer to section 5.3.5 in SNO01 (IND 141723).
# (§2) Each treatment cycle consisted of 21 days. […] This treatment regimen was used for all subjects enrolled in the mTNBC study, unless otherwise indicated.
# The blood sample for circulating tumor cells (CTC) and cancer-associated macrophage-like cells (CAMLs) assessment was collected at baseline and subsequently at Day 1 of each treatment cycle to assess changes in CTCs and CAMLs after treatment and to perform correlative analysis between CCR5 expression and PD-L1 expression.
# Creatv Microtech has developed a size-based technology and detection methodology (LifeTrac Assay) that enables the collection and characterization of all cancer-associated cells in the blood i.e., CTCs, epithelial mesenchymal transition cells (EMTs) and CAMLs [Adams Cytometry 2015, Adams RSC 2014]. The CellSieve™ filtration platform is used to capture CAMLs and CTCs.
# [4] = test system: metastatic HER2+ breast cancer; assay: Single patient emergency use IND: CT/MRI imaging of metastases; format: in vivo, human; conditions: Patient A, 700 mg weekly
# Excerpt: This subject, Patient A, is a person with a diagnosis of metastatic breast cancer, stage IV. The subject previously received Taxotere/Herceptin/Pertuzumab as frontline therapy for metastatic HER2 positive breast cancer. They had partial response for their systemic disease, but then developed diffuse brain metastases (systemic disease stable). They completed whole-brain radiation therapy and continues on Herceptin and Pertuzumab. They have neuropathy and residual side effects from chemotherapy, which limits use of current second-line options due to concern for side effects.
# Prior to enrolling in the trial, the patient had 18 identifiable tumor spots in the brain.
# [5] = Phase Ib/II mTNBC study: adverse events; format: in vivo; conditions: Patient D, weekly 350 mg leronlimab + carboplatin every three weeks, up to Cycle 6 Day 1 visit
# Excerpt: as §1, §2
# [6] = test system: CCR5+ metastatic Triple Negative Breast Cancer (mTNBC); assay: Phase Ib/II mTNBC study: tumor imaging scans; format: in vivo, human; conditions: Patient D, with carboplatin
# Excerpt: as §1, §2
# Scans were taken at the end of every two cycles (every 6 weeks). The subject had Scan 1 after six weeks, Scan 2 after 12 weeks, and Scan 3 after 18 weeks (Table 4).
# [7] = test system: HIV-1; conditions: at concentrations that do not affect CCR5 chemokine receptor activity; Olson 1999, Trkola 2001; cited from earlier work
# [8] = molecular target: CCR5 (Homo sapiens, UniProt P51681); conditions: Jiao 2018; cited from earlier work
# Chain of CCR5 (P51681 whole entry): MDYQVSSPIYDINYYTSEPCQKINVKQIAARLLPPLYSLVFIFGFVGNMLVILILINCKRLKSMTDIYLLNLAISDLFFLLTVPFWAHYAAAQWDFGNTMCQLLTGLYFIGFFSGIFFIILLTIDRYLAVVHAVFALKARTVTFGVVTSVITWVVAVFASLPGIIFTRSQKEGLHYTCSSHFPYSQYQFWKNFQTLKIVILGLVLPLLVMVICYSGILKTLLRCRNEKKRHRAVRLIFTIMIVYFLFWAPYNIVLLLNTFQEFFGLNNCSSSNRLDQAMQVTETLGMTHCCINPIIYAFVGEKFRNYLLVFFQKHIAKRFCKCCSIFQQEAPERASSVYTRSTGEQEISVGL
molecule,measurement,setting,value
"leronlimab: humanized monoclonal anti-CCR5 antibody, humanized version of the murine mAb PA14",CTC count,[1],zero
same,EMT count,[1],zero
same,Tumor volume in a breast cancer tumor model,"[2]; mouse, in vivo",significant reduction
same,Detectable levels of CTC,"[3]; Patient C (second subject), with carboplatin, after two weeks of treatment",no detectable levels
same,Reduction in EMT cells,"[3]; Patient C, with carboplatin, after two weeks of treatment",70%
same,CAML count,"[3]; Patient C, with carboplatin, following at least two weeks of treatment, initial count 45",30
same,CCR5 expression on cancer-associated cells,"[3]; Patient D (first patient), with carboplatin, approximately 11 weeks of treatment",large reductions
same,Detectable circulating tumor cells (CTC) or putative metastatic tumor cells in peripheral blood,"[3]; Patient D (first subject), with carboplatin, following 16 weeks of treatment",no detectable
same,Number of CTCs (PD-L1),"[3]; with carboplatin, C1D1",0
same,Number of Apoptotic CTCs (CCR5),"[3]; with carboplatin, C1D1",0
same,Number of CAMLs (CCR5),"[3]; with carboplatin, C1D1",0
same,Number of CAMLs (PD-L1),"[3]; with carboplatin, C1D1",1
same,Number of CTCs (CCR5),"[3]; with carboplatin, C1D1",0
same,Number of EMTs (CCR5),"[3]; with carboplatin, C1D1",1
same,Number of EMTs (PD-L1),"[3]; with carboplatin, C1D1",1
same,CAML- Total,"[3]; with carboplatin, C1D1",1
same,EMT-Total,"[3]; with carboplatin, C1D1",2
same,Number of Apoptotic CTC (PD-L1),"[3]; with carboplatin, C1D1",0
same,CTC-Total,"[3]; with carboplatin, C1D1",0
same,Number of CTCs (PD-L1),"[3]; with carboplatin, C2D1",0
same,Number of Apoptotic CTCs (CCR5),"[3]; with carboplatin, C2D1",0
same,Number of CAMLs (CCR5),"[3]; with carboplatin, C2D1",1
same,Number of CAMLs (PD-L1),"[3]; with carboplatin, C2D1",2
same,Number of CTCs (CCR5),"[3]; with carboplatin, C2D1",0
same,Number of EMTs (CCR5),"[3]; with carboplatin, C2D1",0
same,Number of EMTs (PD-L1),"[3]; with carboplatin, C2D1",0
same,CAML- Total,"[3]; with carboplatin, C2D1",3
same,EMT-Total,"[3]; with carboplatin, C2D1",0
same,Number of Apoptotic CTC (PD-L1),"[3]; with carboplatin, C2D1",0
same,CTC-Total,"[3]; with carboplatin, C2D1",0
same,Number of CTCs (PD-L1),"[3]; with carboplatin, C3D1",0
same,Number of Apoptotic CTCs (CCR5),"[3]; with carboplatin, C3D1",0
same,Number of CAMLs (CCR5),"[3]; with carboplatin, C3D1",3
same,Number of CAMLs (PD-L1),"[3]; with carboplatin, C3D1",1
same,Number of CTCs (CCR5),"[3]; with carboplatin, C3D1",0
same,Number of EMTs (CCR5),"[3]; with carboplatin, C3D1",0
same,Number of EMTs (PD-L1),"[3]; with carboplatin, C3D1",0
same,Number of Apoptotic CTC (PD-L1),"[3]; with carboplatin, C3D1",0
same,Number of CTCs (PD-L1),"[3]; with carboplatin, C4D1",0
same,Number of Apoptotic CTCs (CCR5),"[3]; with carboplatin, C4D1",0
same,Number of CAMLs (CCR5),"[3]; with carboplatin, C4D1",0
same,Number of CAMLs (PD-L1),"[3]; with carboplatin, C4D1",1
same,Number of CTCs (CCR5),"[3]; with carboplatin, C4D1",0
same,Number of EMTs (CCR5),"[3]; with carboplatin, C4D1",0
same,Number of EMTs (PD-L1),"[3]; with carboplatin, C4D1",0
same,CAML- Total,"[3]; with carboplatin, C4D1",1
same,EMT-Total,"[3]; with carboplatin, C4D1",0
same,Number of Apoptotic CTC (PD-L1),"[3]; with carboplatin, C4D1",0
same,CTC-Total,"[3]; with carboplatin, C4D1",0
same,Number of CTCs (PD-L1),"[3]; with carboplatin, C5D1",0
same,Number of Apoptotic CTCs (CCR5),"[3]; with carboplatin, C5D1",0
same,Number of CAMLs (CCR5),"[3]; with carboplatin, C5D1",1
same,Number of CAMLs (PD-L1),"[3]; with carboplatin, C5D1",2
same,Number of CTCs (CCR5),"[3]; with carboplatin, C5D1",0
same,Number of EMTs (CCR5),"[3]; with carboplatin, C5D1",0
same,Number of EMTs (PD-L1),"[3]; with carboplatin, C5D1",0
same,CAML- Total,"[3]; with carboplatin, C5D1",3
same,EMT-Total,"[3]; with carboplatin, C5D1",0
same,Number of Apoptotic CTC (PD-L1),"[3]; with carboplatin, C5D1",0
same,CTC-Total,"[3]; with carboplatin, C5D1",0
same,CAML- Total,"[3]; with carboplatin, C6D1",8
same,EMT-Total,"[3]; with carboplatin, C6D1",0
same,CTC-Total,"[3]; with carboplatin, C6D1",0
same,Detectable circulating tumor cells (CTCs) or putative metastatic tumor cells in peripheral blood,"[3]; first patient of Phase 1b/2 trial, at 11 weeks of treatment",no detectable
same,Decrease of total CTC+EMT counts,"[3]; third subject, with carboplatin, first two weeks of treatment",75%
same,"New metastatic spots in the liver, lung and brain (CT scan)",[4]; approximately four weeks after initial treatment,no sign of new metastatic spots
same,Reduction in tumor volume of the largest brain tumor,[4]; approximately two months,56%
same,New metastasis in the brain,[4]; approximately two months after initial treatment,no new metastasis was detectable
same,Identifiable lesions in the brain,"[4]; approximately two months, 18 identifiable tumor spots before",three
same,Serious adverse events,[5],no serious adverse events had been reported
same,New lung nodules,[6]; Scan 3,no new lung nodules found
same,"New lymphadenopathy or metastatic disease on diagnostic CT chest, abdomen and pelvis",[6]; Scan 3,No new
same,Previously identified right hilar lymph node,[6]; Scan 3,resolved
same,Right lung metastasis maximum standardized uptake values (SUVs),"[6]; Scan 3, previously 15.3",values (SUVs) of 6.8 (previously
same,Decrease in size of target lesion,[6]; scan 3 vs previous 2.4×1.9,20%
same,HIV-1 entry and replication,[7],potently inhibits
maraviroc,Lung metastasis / homing of breast cancer cells to the lungs in mouse model,[2]; FIG. 1,block homing of breast cancer cells to the lungs; also recorded: inhibition of lung metastasis; also recorded: effectively blocked lung metastases
same,Cell killing mediated by DNA-damaging chemotherapeutic agents,[8],dramatically enhanced
COC[C@@H](c1ccc(C(F)(F)F)cc1)N1CCN(C2(C)CCN(C(=O)c3c(C)ncnc3C)CC2)C[C@@H]1C [vicriviroc],Cell killing mediated by DNA-damaging chemotherapeutic agents,[8],dramatically enhanced
